# Data: the supplement of paper PMC11616607
# Test system: OVCAR4
# Test: drug sensitivity score (DSS) from 5-point dose-response viability curve (DSS (area-under-curve based score)); higher = more sensitive (stronger growth inhibition or killing); extreme values may be limits of the assay
# Conditions: exposure time: 72 h; concentration range: 5 concentrations over 10,000-fold range
# Summary of the method: (§1)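 Drugs in DMSO or water were acoustically dispensed (Echo 550) into 384-well plates at five concentrations across a 10,000-fold range. Ovarian cancer and normal ovarian cells (1,500 per well) were then added, incubated for 3 days at 37°C with 5% CO2, and read for viability by CellTiter-Glo luminescence on a PHERAstar FS. From these readings, Breeze software derived a drug sensitivity score per cell line and drug, with higher values meaning more sensitive and zero meaning no response.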
row,SMILES,drug sensitivity score
1,CCN(CC)CCCC(C)Nc1c2ccc(Cl)cc2nc2ccc(OC)cc12 (stereo unspecified) [Mepacrine],15.2
2,S=c1[nH]cnc2nc[nH]c12 [Mercaptopurine],12.3
3,Cc1ccc(C(=O)Nc2ccc(Oc3cc4cnn(C)c4cc3-c3cn[nH]c3)c(F)c2)c(=O)n1-c1ccc(F)cc1 [Merestinib],0.4
4,CN(C)C(=N)NC(=N)N [Metformin],0
5,CN(Cc1cnc2nc(N)nc(N)c2n1)c1ccc(C(=O)N[C@@H](CCC(=O)O)C(=O)O)cc1 [Methotrexate],14.8
6,C[C@H]1C[C@@H]2[C@H]([C@@H](O)C[C@@]3(C)[C@H]2CC[C@]3(O)C(=O)CO)[C@@]2(C)C=CC(=O)C=C12 [Methylprednisolone],0
7,CO[C@@H]1[C@H](N(C)C(=O)c2ccccc2)C[C@H]2O[C@]1(C)n1c3ccccc3c3c4c(c5c6ccccc6n2c5c31)C(=O)NC4 [Midostaurin],8.5
8,CNC(=O)c1nn(C)c2c1C(C)(C)Cc1cnc(Nc3ccc(N4CCN(C)CC4)cc3)nc1-2 [Milciclib],6.4
9,CCCCCCCCCCCCCCCCOP(=O)([O-])OCC[N+](C)(C)C [Miltefosine],3.5
10,CO[C@@]12[C@H](COC(N)=O)C3=C(C(=O)C(C)=C(N)C3=O)N1C[C@@H]1N[C@@H]12 [Mitomycin C],0
11,Clc1ccc(C(c2ccccc2Cl)C(Cl)Cl)cc1 (stereo unspecified) [Mitotane],0.3
12,O=C1c2c(O)ccc(O)c2C(=O)c2c(NCCNCCO)ccc(NCCNCCO)c21 [Mitoxantrone],4.2
13,CCS(=O)(=O)Nc1ccc(Oc2ccc(F)cc2F)c(-c2cn(C)c(=O)c3[nH]ccc23)c1 [Mivebresib],18.3
14,Nc1ccccc1NC(=O)c1ccc(CNc2nccc(-c3cccnc3)n2)cc1 [Mocetinostat],6.8
15,CCNC(=O)C[C@@H]1N=C(c2ccc(Cl)cc2)c2cc(OC)ccc2-n2c(C)nnc21 [Molibresib],4.3
16,N#CCNC(=O)c1ccc(-c2ccnc(Nc3ccc(N4CCOCC4)cc3)n2)cc1 [Momelotinib],0
17,CC1(C)CNc2cc(NC(=O)c3cccnc3NCc3ccncc3)ccc21 [Motesanib],0
18,CCCN(CCC)C(=O)C1=Cc2ccc(-c3ccc(C(=O)N4CCCC4)cc3)cc2N=C(N)C1 [Motolimod],0.9
19,FC(F)(F)c1ccc(/C=C/c2nc(COc3ccc(CCCCn4ccnn4)cc3)co2)cc1 [Mubritinib],2.2
20,Cc1cc(OCc2nnc(SC3CCCC3)n2-c2cccnc2)ccc1-c1ccc(S(C)(=O)=O)cc1 [NMS-873],7.9
21,COc1ccc(-c2ccc3ncc4c(c3c2)n(-c2ccc(N3CCNCC3)c(C(F)(F)F)c2)c(=O)n4C)cn1 [NVP-BGT226],13.6
22,Cc1ccc(C(=O)Nc2cccc(C(F)(F)F)c2)cc1Nc1nc(-c2cccnc2)nc2c1cnn2C [NVP-BHG712],1.4
23,COc1cc2c(cc1OC(C)C)[C@H](c1ccc(Cl)cc1)N(c1ccc(N(C)C[C@H]3CC[C@H](N4CCN(C)C(=O)C4)CC3)cc1)C(=O)C2 [NVP-CGM097],5
24,CN[C@@H](C)C(=O)N[C@H](C(=O)N1CCC[C@H]1c1nc(C(=O)c2ccc(F)cc2)cs1)C1CCCCC1 [NVP-LCL161],16.4
25,Cn1c(Nc2ccc(C(F)(F)F)cc2)nc2cc(Oc3ccnc(-c4ncc(C(F)(F)F)[nH]4)c3)ccc21 [NVP-RAF265],0.3
26,CC(=O)c1cc2c(o1)C(=O)c1ccccc1C2=O [Napabucasin],19
27,CC1(C)CCC(c2ccc(Cl)cc2)=C(CN2CCN(c3ccc(C(=O)NS(=O)(=O)c4ccc(N[C@H](CCN5CCOCC5)CSc5ccccc5)c(S(=O)(=O)C(F)(F)F)c4)cc3)CC2)C1 [Navitoclax],2

# Test system: COV362
# Test: as above
# Conditions: exposure time: 72 h; concentration range: 5 concentrations over 10,000-fold range
# Summary of the method: as §1
row,SMILES,drug sensitivity score
1,CCN(CC)CCCC(C)Nc1c2ccc(Cl)cc2nc2ccc(OC)cc12 (stereo unspecified) [Mepacrine],10.3
2,S=c1[nH]cnc2nc[nH]c12 [Mercaptopurine],6.4
3,Cc1ccc(C(=O)Nc2ccc(Oc3cc4cnn(C)c4cc3-c3cn[nH]c3)c(F)c2)c(=O)n1-c1ccc(F)cc1 [Merestinib],0
4,CN(C)C(=N)NC(=N)N [Metformin],0
5,CN(Cc1cnc2nc(N)nc(N)c2n1)c1ccc(C(=O)N[C@@H](CCC(=O)O)C(=O)O)cc1 [Methotrexate],14.5
6,C[C@H]1C[C@@H]2[C@H]([C@@H](O)C[C@@]3(C)[C@H]2CC[C@]3(O)C(=O)CO)[C@@]2(C)C=CC(=O)C=C12 [Methylprednisolone],1.2
7,CO[C@@H]1[C@H](N(C)C(=O)c2ccccc2)C[C@H]2O[C@]1(C)n1c3ccccc3c3c4c(c5c6ccccc6n2c5c31)C(=O)NC4 [Midostaurin],5
8,CNC(=O)c1nn(C)c2c1C(C)(C)Cc1cnc(Nc3ccc(N4CCN(C)CC4)cc3)nc1-2 [Milciclib],5.4
9,CCCCCCCCCCCCCCCCOP(=O)([O-])OCC[N+](C)(C)C [Miltefosine],3.4
10,CO[C@@]12[C@H](COC(N)=O)C3=C(C(=O)C(C)=C(N)C3=O)N1C[C@@H]1N[C@@H]12 [Mitomycin C],0
11,Clc1ccc(C(c2ccccc2Cl)C(Cl)Cl)cc1 (stereo unspecified) [Mitotane],0
12,O=C1c2c(O)ccc(O)c2C(=O)c2c(NCCNCCO)ccc(NCCNCCO)c21 [Mitoxantrone],4
13,CCS(=O)(=O)Nc1ccc(Oc2ccc(F)cc2F)c(-c2cn(C)c(=O)c3[nH]ccc23)c1 [Mivebresib],9.4
14,Nc1ccccc1NC(=O)c1ccc(CNc2nccc(-c3cccnc3)n2)cc1 [Mocetinostat],1.1
15,CCNC(=O)C[C@@H]1N=C(c2ccc(Cl)cc2)c2cc(OC)ccc2-n2c(C)nnc21 [Molibresib],2.3
16,N#CCNC(=O)c1ccc(-c2ccnc(Nc3ccc(N4CCOCC4)cc3)n2)cc1 [Momelotinib],1
17,CC1(C)CNc2cc(NC(=O)c3cccnc3NCc3ccncc3)ccc21 [Motesanib],0
18,CCCN(CCC)C(=O)C1=Cc2ccc(-c3ccc(C(=O)N4CCCC4)cc3)cc2N=C(N)C1 [Motolimod],0
19,FC(F)(F)c1ccc(/C=C/c2nc(COc3ccc(CCCCn4ccnn4)cc3)co2)cc1 [Mubritinib],0
20,Cc1cc(OCc2nnc(SC3CCCC3)n2-c2cccnc2)ccc1-c1ccc(S(C)(=O)=O)cc1 [NMS-873],4.4
21,COc1ccc(-c2ccc3ncc4c(c3c2)n(-c2ccc(N3CCNCC3)c(C(F)(F)F)c2)c(=O)n4C)cn1 [NVP-BGT226],4.6
22,Cc1ccc(C(=O)Nc2cccc(C(F)(F)F)c2)cc1Nc1nc(-c2cccnc2)nc2c1cnn2C [NVP-BHG712],5.6
23,COc1cc2c(cc1OC(C)C)[C@H](c1ccc(Cl)cc1)N(c1ccc(N(C)C[C@H]3CC[C@H](N4CCN(C)C(=O)C4)CC3)cc1)C(=O)C2 [NVP-CGM097],4.6
24,CN[C@@H](C)C(=O)N[C@H](C(=O)N1CCC[C@H]1c1nc(C(=O)c2ccc(F)cc2)cs1)C1CCCCC1 [NVP-LCL161],1.9
25,Cn1c(Nc2ccc(C(F)(F)F)cc2)nc2cc(Oc3ccnc(-c4ncc(C(F)(F)F)[nH]4)c3)ccc21 [NVP-RAF265],0
26,CC(=O)c1cc2c(o1)C(=O)c1ccccc1C2=O [Napabucasin],12.4
27,CC1(C)CCC(c2ccc(Cl)cc2)=C(CN2CCN(c3ccc(C(=O)NS(=O)(=O)c4ccc(N[C@H](CCN5CCOCC5)CSc5ccccc5)c(S(=O)(=O)C(F)(F)F)c4)cc3)CC2)C1 [Navitoclax],0

# Test system: Ovsaho
# Test: as above
# Conditions: exposure time: 72 h; concentration range: 5 concentrations over 10,000-fold range
# Summary of the method: as §1
row,SMILES,drug sensitivity score
1,CCN(CC)CCCC(C)Nc1c2ccc(Cl)cc2nc2ccc(OC)cc12 (stereo unspecified) [Mepacrine],13.1
2,S=c1[nH]cnc2nc[nH]c12 [Mercaptopurine],5.5
3,Cc1ccc(C(=O)Nc2ccc(Oc3cc4cnn(C)c4cc3-c3cn[nH]c3)c(F)c2)c(=O)n1-c1ccc(F)cc1 [Merestinib],0
4,CN(C)C(=N)NC(=N)N [Metformin],0
5,CN(Cc1cnc2nc(N)nc(N)c2n1)c1ccc(C(=O)N[C@@H](CCC(=O)O)C(=O)O)cc1 [Methotrexate],2.9
6,C[C@H]1C[C@@H]2[C@H]([C@@H](O)C[C@@]3(C)[C@H]2CC[C@]3(O)C(=O)CO)[C@@]2(C)C=CC(=O)C=C12 [Methylprednisolone],1
7,CO[C@@H]1[C@H](N(C)C(=O)c2ccccc2)C[C@H]2O[C@]1(C)n1c3ccccc3c3c4c(c5c6ccccc6n2c5c31)C(=O)NC4 [Midostaurin],14.1
8,CNC(=O)c1nn(C)c2c1C(C)(C)Cc1cnc(Nc3ccc(N4CCN(C)CC4)cc3)nc1-2 [Milciclib],10.7
9,CCCCCCCCCCCCCCCCOP(=O)([O-])OCC[N+](C)(C)C [Miltefosine],7.3
10,CO[C@@]12[C@H](COC(N)=O)C3=C(C(=O)C(C)=C(N)C3=O)N1C[C@@H]1N[C@@H]12 [Mitomycin C],0
11,Clc1ccc(C(c2ccccc2Cl)C(Cl)Cl)cc1 (stereo unspecified) [Mitotane],0
12,O=C1c2c(O)ccc(O)c2C(=O)c2c(NCCNCCO)ccc(NCCNCCO)c21 [Mitoxantrone],6.5
13,CCS(=O)(=O)Nc1ccc(Oc2ccc(F)cc2F)c(-c2cn(C)c(=O)c3[nH]ccc23)c1 [Mivebresib],22.8
14,Nc1ccccc1NC(=O)c1ccc(CNc2nccc(-c3cccnc3)n2)cc1 [Mocetinostat],7.8
15,CCNC(=O)C[C@@H]1N=C(c2ccc(Cl)cc2)c2cc(OC)ccc2-n2c(C)nnc21 [Molibresib],9.3
16,N#CCNC(=O)c1ccc(-c2ccnc(Nc3ccc(N4CCOCC4)cc3)n2)cc1 [Momelotinib],2.4
17,CC1(C)CNc2cc(NC(=O)c3cccnc3NCc3ccncc3)ccc21 [Motesanib],3.5
18,CCCN(CCC)C(=O)C1=Cc2ccc(-c3ccc(C(=O)N4CCCC4)cc3)cc2N=C(N)C1 [Motolimod],0
19,FC(F)(F)c1ccc(/C=C/c2nc(COc3ccc(CCCCn4ccnn4)cc3)co2)cc1 [Mubritinib],0.5
20,Cc1cc(OCc2nnc(SC3CCCC3)n2-c2cccnc2)ccc1-c1ccc(S(C)(=O)=O)cc1 [NMS-873],6.9
21,COc1ccc(-c2ccc3ncc4c(c3c2)n(-c2ccc(N3CCNCC3)c(C(F)(F)F)c2)c(=O)n4C)cn1 [NVP-BGT226],15.6
22,Cc1ccc(C(=O)Nc2cccc(C(F)(F)F)c2)cc1Nc1nc(-c2cccnc2)nc2c1cnn2C [NVP-BHG712],2.9
23,COc1cc2c(cc1OC(C)C)[C@H](c1ccc(Cl)cc1)N(c1ccc(N(C)C[C@H]3CC[C@H](N4CCN(C)C(=O)C4)CC3)cc1)C(=O)C2 [NVP-CGM097],5.8
24,CN[C@@H](C)C(=O)N[C@H](C(=O)N1CCC[C@H]1c1nc(C(=O)c2ccc(F)cc2)cs1)C1CCCCC1 [NVP-LCL161],8.6
25,Cn1c(Nc2ccc(C(F)(F)F)cc2)nc2cc(Oc3ccnc(-c4ncc(C(F)(F)F)[nH]4)c3)ccc21 [NVP-RAF265],1.7
26,CC(=O)c1cc2c(o1)C(=O)c1ccccc1C2=O [Napabucasin],17.3
27,CC1(C)CCC(c2ccc(Cl)cc2)=C(CN2CCN(c3ccc(C(=O)NS(=O)(=O)c4ccc(N[C@H](CCN5CCOCC5)CSc5ccccc5)c(S(=O)(=O)C(F)(F)F)c4)cc3)CC2)C1 [Navitoclax],3
